Like-named read-outs stand apart in the source and are kept apart here.
Columns and labels:
[1] = molecular target: recombinant human SGK-1 enzyme (Homo sapiens, UniProt O00141); assay: Enzymatic activity assay: SGK-1 substrate peptide phosphorylation (Caliper lab-chip mobility shift); format: biochemical; conditions: peptide substrate 1 μM, ATP 10 μM, 60 min at 37° C., read-out: IC50 values for inhibition of SGK-1 enzymatic activity
Description: In one of the cellular assays, the SGK-1 dependent phosphorylation of glycogen synthase kinase 3beta (GSK3beta) in U2OS cells was measured, in another one, a functional electrophysiological assay, the SGK-1 dependent activation of epithelial Na^+ channel (ENaC) currents in A6 cell monolayers, and in another one chondrocyte hypertrophic differentiation in mouse chondrogenic ATDC5 cells.
A) Enzymatic Activity Assay
For the determination of the compound dose response, a 10 mM DMSO stock solution was diluted and tested in a ten-point, three-fold dilution series run in duplicate beginning at 30 μM final concentration. Data were analyzed using a four-parameter curve fit with a fixed minimum and maximum experimentally defined as the average positive and negative controls on each plate.

[2] = system: SGK-1 dependent phosphorylation of GSK3beta in U2OS cells; assay: SGK-1 dependent phosphorylation of GSK3beta in U2OS cells overexpressing recombinant SGK-1 and GSK3beta; format: cell-based, human; conditions: U2OS cells, 6 h incubation, ratio of phosphorylated GSK3beta to total GSK3beta, read-out: IC50 values for inhibition of SGK-1 dependent phosphorylation of GSK3beta in U2OS cells
Description: B) Determination of the Effect on SGK-1 Dependent Phosphorylation of GSK3beta in U2OS Cells
U2OS cells were cultured in 1:1 Dulbecco modified Eagle medium/Ham's F12 and 10% heat-inactivated fetal calf serum (FCS Gold) at 37° C., 7% CO2 and 95% relative humidity. […] Cell suspension mixed with BacMam viruses was seeded in 96 well pCLEAR plates (Greiner) at 3×10^4 cells per well in 250 μl medium. […] 1 μl of a solution of the test compound at 250×final concentration was added. Cells are incubated at 37° C., 7% CO2 and 95% relative humidity. […] After removing the fixation solution, cells were permeabilised by adding 200 μl PBT (0.2% Triton X-100 in PBS) per well for 5 min. After removing PBT, cells were blocked by adding 200 μl of blocking solution (1% bovine serum albumine in PBS) per well. Blocking solution was removed and 50 μl of primary antibody (rabbit anti-phospho-GSK-3beta (Ser9), and mouse anti-GSK-3beta) were added for 1 h. […] After washing the cells 3 times with PBS, 200 μl of PBS were added. Fluorescence signals were measured with the ImageXpress MICRO (Molecular Devices).

Chain of recombinant human SGK-1 enzyme (O00141 whole entry, looked up): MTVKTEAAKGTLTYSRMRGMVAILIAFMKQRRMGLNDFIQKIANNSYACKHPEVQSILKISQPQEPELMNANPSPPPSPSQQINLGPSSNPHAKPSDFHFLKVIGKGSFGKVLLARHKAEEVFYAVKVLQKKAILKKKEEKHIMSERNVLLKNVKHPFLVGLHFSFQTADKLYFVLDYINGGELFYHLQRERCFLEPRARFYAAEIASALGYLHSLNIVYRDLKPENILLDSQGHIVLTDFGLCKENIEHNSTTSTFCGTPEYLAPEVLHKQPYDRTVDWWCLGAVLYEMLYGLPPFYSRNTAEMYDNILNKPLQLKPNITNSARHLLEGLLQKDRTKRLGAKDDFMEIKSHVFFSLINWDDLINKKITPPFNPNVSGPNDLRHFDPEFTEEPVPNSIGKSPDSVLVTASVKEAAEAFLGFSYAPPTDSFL

Row | IC50 ([2]; Homo sapiens) | SMILES | IC50 [1] | IC50 [2]
1 |  | Cc1n[nH]c2nc(-c3ccc(NS(=O)(=O)c4cc(Cl)ccc4Cl)cc3)nc(OC3CCN(CCF)CC3)c12 [Example 342] | 6 nM | 280 nM
2 |  | COc1ccc(Cl)c(S(=O)(=O)Nc2ccc(-c3nc(OCCCC(N)=O)c4cn[nH]c4n3)cc2)c1 [Example 113] | 3 nM | 3600 nM
3 |  | Cc1nc(-c2ccc(NS(=O)(=O)c3cccc(Cl)c3C#N)cc2)nc2[nH]nc(N)c12 [Example 470] | 11 nM | 2000 nM
4 |  | O=S(=O)(Nc1ccc(-c2nc(OCC3CNCCO3)c3cn[nH]c3n2)cc1)c1cc(F)ccc1F (centres unmarked) [Example 311] | 240 nM | 92 nM
5 |  | O=S(=O)(Nc1ccc(-c2nc(O[C@@H]3CCC[C@H]3O)c3cn[nH]c3n2)cc1)c1cc(Cl)ccc1Cl [Example 88] | 6.7 nM | 4500 nM
6 |  | Cc1n[nH]c2nc(-c3ccc(NS(=O)(=O)c4cc5c(cc4Cl)OCCO5)cc3)ncc12 [Example 103] | 2.3 nM | 9100 nM
7 |  | Cc1n[nH]c2nc(-c3ccc(NS(=O)(=O)c4cc(Cl)ccc4F)cc3)nc(OCC3CNCCO3)c12 (centres unmarked) [Example 291] | 2.5 nM | 76 nM
8 |  | Nc1n[nH]c2nc(-c3ccc(NS(=O)(=O)c4cc(Cl)ccc4Cl)cc3)nc(OCC(F)(F)F)c12 [Example 195] | 5.4 nM | 210 nM
9 |  | O=S(=O)(Nc1ccc(-c2nc(C3CC3)c3cn[nH]c3n2)cc1F)c1cc(Cl)ccc1F [Example 443] | 94 nM | 320 nM
10 |  | Cc1ccc(C#N)c(S(=O)(=O)Nc2ccc(-c3nc(C4CC4)c4cn[nH]c4n3)cc2)c1 [Example 145] | 4.1 nM | 350 nM
11 |  | COc1ccc(F)c(S(=O)(=O)Nc2ccc(-c3nc(OC4CCCNC4)c4c(C)n[nH]c4n3)cc2)c1 (centres unmarked) [Example 294] | 3.5 nM | 270 nM
12 |  | Cc1n[nH]c2nc(-c3ccc(NS(=O)(=O)c4cc(Cl)ccc4Cl)cc3)nc(OC3CCC(O)CC3)c12 (centres unmarked) [Example 214] | 69 nM | 130 nM
13 |  | Cc1ccc(C#N)c(S(=O)(=O)Nc2ccc(-c3nc(OC4CCN(CCF)CC4)c4c(C)n[nH]c4n3)cc2)c1 [Example 343] | 3.8 nM | 68 nM
14 | 73 nM | Cc1nc(-c2ccc(NS(=O)(=O)c3cc(Cl)ccc3Cl)cc2)nc2[nH]nc(NC(=O)C3CCOCC3)c12 [Example 545, N-[6-[4-[(2,5-Dichlorophenyl)sulfonylamino]phenyl]-4-methyl-1H-pyrazolo[3,4-d]pyrimidin-3-yl]tetrahydropyran-4-carboxamide] |  | 
15 |  | NCCCOc1nc(-c2ccc(NS(=O)(=O)c3cc(Cl)ccc3F)cc2)nc2[nH]ncc12 [Example 62] | < 1.2 nM | 450 nM
16 |  | Cc1ccc(F)c(S(=O)(=O)Nc2ccc(-c3nc(OCC4CNCCO4)c4c(C)n[nH]c4n3)cc2)c1 (centres unmarked) [Example 288] | 2.3 nM | 61 nM
17 |  | COc1ccc(C#N)c(S(=O)(=O)Nc2ccc(-c3nc(OCC(C)C)c4c(N)n[nH]c4n3)cc2)c1 [Example 336] | 5.5 nM | 190 nM
18 |  | COc1ccc(F)c(S(=O)(=O)Nc2ccc(-c3nc(OC)c4cn[nH]c4n3)cc2)c1 [Example 144] | 3.5 nM | 55 nM
19 |  | Cc1n[nH]c2nc(-c3ccc(NS(=O)(=O)c4cc(F)ccc4C#N)cc3)nc(OC3CCC(O)CC3)c12 (centres unmarked) [Example 131] | 4.9 nM | 2600 nM
20 |  | COc1ccc(Cl)c(S(=O)(=O)Nc2ccc(-c3nc(OCC(F)(F)F)c4c(N)n[nH]c4n3)cc2)c1 [Example 194] | 2.3 nM | 100 nM
21 |  | Cc1n[nH]c2nc(-c3ccc(NS(=O)(=O)c4cc(F)ccc4F)cc3)nc(OC3CCNCC3F)c12 (centres unmarked) [Example 296] | 2.7 nM | 60 nM

Row | IC50 ([2]; Homo sapiens) | SMILES | IC50 [1] | IC50 [2]
22 |  | Cc1ccc(C#N)c(S(=O)(=O)Nc2ccc(-c3nc(OCC4CNCCO4)c4c(C)n[nH]c4n3)cc2)c1 (centres unmarked) [Example 293] | 3.2 nM | 630 nM
23 |  | COc1ccc(F)c(S(=O)(=O)Nc2ccc(-c3nc(OC4CCC(O)CC4)c4cn[nH]c4n3)cc2)c1 (centres unmarked) [Example 133] | < 1.5 nM | 260 nM
24 |  | Cc1n[nH]c2nc(-c3ccc(NS(=O)(=O)c4cc(C#N)ccc4F)cc3)nc(OC3CCC(O)CC3)c12 (centres unmarked) [Example 128] | 2.7 nM | 3600 nM
25 | 50 nM | CC(C)Oc1nc(-c2ccc(NS(=O)(=O)c3cc(Cl)ccc3F)c(F)c2)nc2[nH]nc(N)c12 [Example 444, N-[4-(3-Amino-4-isopropoxy-1H-pyrazolo[3,4-d]pyrimidin-6-yl)-2-fluoro-phenyl]-5-chloro-2-fluoro-benzenesulfonamide] |  | 
26 | 4900 nM | Cc1n[nH]c2nc(-c3ccc(NS(=O)(=O)c4cc(Cl)c(F)cc4F)cc3)ncc12 [Example 449, 5-Chloro-2,4-difluoro-N-[4-(3-methyl-1H-pyrazolo[3,4-d]pyrimidin-6-yl)-phenyl]-benzenesulfonamide] |  | 
27 |  | COc1ccc(Cl)c(S(=O)(=O)Nc2ccc(-c3nc(OCC4CNCCO4)c4cn[nH]c4n3)cc2)c1 (centres unmarked) [Example 306] | 7.1 nM | 19 nM
28 |  | COCCc1nc(-c2ccc(NS(=O)(=O)c3cc(C)ccc3F)cc2)nc2[nH]nc(N)c12 [Example 503] | 29 nM | 630 nM
29 |  | COc1ccc(F)c(S(=O)(=O)Nc2ccc(-c3nc(OC4CCNCC4F)c4c(C)n[nH]c4n3)cc2)c1 (centres unmarked) [Example 302] | 1.9 nM | 86 nM
30 |  | COc1nc(-c2ccc(NS(=O)(=O)c3cc(Cl)ccc3Cl)cc2)nc2[nH]ncc12 [Example 139] | 82 nM | 5500 nM
31 |  | O=S(=O)(Nc1ccc(-c2nc(O[C@H]3CCCC[C@H]3O)c3cn[nH]c3n2)cc1)c1cc(Cl)ccc1Cl [Example 82] | 12 nM | 2100 nM
32 |  | COc1ccc(Cl)c(S(=O)(=O)Nc2ccc(-c3nc(N4CC(CO)C4)c4cn[nH]c4n3)cc2)c1 [Example 110] | 14 nM | 5100 nM
33 |  | COCCc1nc(-c2ccc(NS(=O)(=O)c3cc(Cl)ccc3F)cc2)nc2[nH]nc(N)c12 [Example 506] | 110 nM | 670 nM
34 |  | Cc1ccc(C#N)cc1S(=O)(=O)Nc1ccc(-c2nc(C)c3c(N)n[nH]c3n2)cc1 [Example 473] | 32 nM | 8200 nM
35 |  | O=S(=O)(Nc1ccc(-c2nc(O[C@@H]3CCCC[C@@H]3O)c3cn[nH]c3n2)cc1)c1cc(Cl)ccc1F (racemic) [Example 81] | 11 nM | 1700 nM
36 | 4000 nM | Cc1nc(-c2ccc(NS(=O)(=O)c3cc(Cl)ccc3Cl)cc2)nc2[nH]nc(NCC3CCOCC3)c12 [Example 547, 2,5-Dichloro-N-(4-{4-methyl-3-[(tetrahydro-pyran-4-ylmethyl)-amino]-1H-pyrazolo[3,4-d]pyrimidin-6-yl}-phenyl)-benzenesulfonamide] |  | 
37 | 2600 nM | Cc1nc(-c2ccc(NS(=O)(=O)c3cc(Cl)ccc3F)cc2)nc2[nH]ncc12 [Example 6, 5-Chloro-2-fluoro-N-[4-(4-methyl-1H-pyrazolo[3,4-d]pyrimidin-6-yl)-phenyl]-benzenesulfonamide] |  | 
38 | 3100 nM | Cc1nc(-c2ccc(NS(=O)(=O)c3cc(Cl)ccc3Cl)cc2)nc2[nH]nc(NC(=O)C3CC(O)C3)c12 (centres unmarked) [Example 536, 3-Hydroxy-cyclobutanecarboxylic acid {6-[4-(2,5-dichloro-benzenesulfonylamino)-phenyl]-4-methyl-1H-pyrazolo[3,4-d]pyrimidin-3-yl}-amide] |  | 
39 | 170 nM | Nc1n[nH]c2nc(-c3ccc(NS(=O)(=O)c4cc(Cl)ccc4F)cc3)nc(C(F)(F)F)c12 [Example 568, N-[4-(3-Amino-4-trifluoromethyl-1H-pyrazolo[3,4-d]pyrimidin-6-yl)-phenyl]-5-chloro-2-fluoro-benzenesulfonamide] |  | 
40 | 6400 nM | Cc1ccc(C#N)c(S(=O)(=O)Nc2ccc(-c3cc4[nH]nc(N)c4cn3)cc2)c1 [Example 553, N-[4-(3-Amino-1H-pyrazolo[4,3-c]pyridin-6-yl)phenyl]-2-cyano-5-methyl-benzenesulfonamide] |  | 
41 | 1800 nM | COc1ccc(Cl)c(S(=O)(=O)Nc2ccc(-c3ncc4c(C)n[nH]c4n3)cc2F)c1 [Example 533, 2-Chloro-N-[2-fluoro-4-(3-methyl-1H-pyrazolo[3,4-d]pyrimidin-6-yl)-phenyl]-5-methoxy-benzenesulfonamide] |  | 
42 | 1100 nM | O=C(Nc1n[nH]c2nc(-c3ccc(NS(=O)(=O)c4cc(Cl)ccc4Cl)cc3)ncc12)C1CCNCC1 [Example 546, N-[6-[4-[(2,5-Dichlorophenyl)sulfonylamino]phenyl]-1H-pyrazolo[3,4-d]pyrimidin-3-yl]piperidine-4-carboxamide] |  | 

Source: US9718825B2, “N-(4-(azaindazol-6-yl)-phenyl)-sulfonamides and their use as pharmaceuticals” (priority 2013, dated 2017)
